Experimental data from patent US20080207614A1, “QUINAZOLINE DERIVATIVES FOR THE TREATMENT AND PREVENTION OF DIABETES AND OBESITY” (SK CHEMICALS CO., LTD., priority 2004, published 2008).

Columns and labels:
[1] = tested on: AMPK; assay: Measurement of AMPK activity by Western blot in C2C12 cells; format: cell-based; set-up: key to AMPK activity (degree of phosphorylation of serine-79 and threonine-172): fold increase in threonine-172 phosphorylation; AMPK activity (degree of phosphorylation of serine-79): unit not given here; details: 10 μM for 50 minutes; for AMPK activity (degree of phosphorylation of serine-79): footnote a: Western blot of serine-79 phosphorylation; for AMPK activity (class: degree of phosphorylation of threonine-172): strong/mild/weak; for AMPK activity (degree of phosphorylation of serine-79 and threonine-172): no superscript: Western blot of serine-79 and threonine-172 phosphorylation
Protocol: C2C12 cells were cultured and differentiated in the same manner as in Experimental Example 1. Treatment with the test materials was also performed in the same manner as in Experimental Example 1 (10 μM for 50 minutes). The culture medium was removed and the cells were washed for 2 times with PBS and protein extracts were obtained using a lysis buffer (50 mM tris-HCl, pH 7.4, 1% NP-40, 0.25% sodium deoxycholate, 150 mM NaCl, 1 mM EDTA, 1 mM PMSF, 1 mM sodium o-vanadate, 1 mM NaF, 1 μg/mL apronitin, 1 μg/mL leu-peptin, 1 μg/mL pepstatin). The AMPK activity was determined from Western blot analysis of the degree of phosphorylation of serine-79 […] acetyl CoA carboxylase and the degree of phosphorylation of threonine-172. The amount of ERK (extracellular signal regulated protein kinase) was confirmed by Western blot in order to quantify the proteins.
The result of Western blot analysis is given in Table 3 below, wherein “strong” means that the degree of phosphorylation of threonine-172 increased by 3 times or more, “mild” means that the degree of phosphorylation of threonine-172 increased by 1 to 3 times and “weak” means that the degree of phosphorylation of threonine-172 increased by less than 1 time.

[2] = tested on: C2C12 muscle cells; assay: Analysis of glucose absorption (2-deoxyglucose) in differentiated C2C12 muscle cells; format: cell-based; details: test materials 10 μM, times relative to control group
Summary of the method: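 Uptake of 0.2 μCi 2-deoxyglucose over 20 min, counted radiometrically in lysed cells. Before tracer, compounds (10 μM) were applied for 30 min to C2C12 cells differentiated 6 days in 1% serum and equilibrated 3 h in 5 mM glucose KRB.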

SMILES	AMPK activity (degree of phosphorylation of serine-79) [1]	Glucose absorption [2]	AMPK activity (class: degree of phosphorylation of threonine-172) [1]	AMPK activity (degree of phosphorylation of serine-79 and threonine-172) [1]
OCCOCCNc1nc(-c2ccccc2)nc2ccccc12 [Compound 1, 2-[2-(2-Phenylquinazolino-4-ylamino)-ethoxy]-ethanol]	6.0^a	1.7	–	–
CC(C)Nc1nc(C(Cl)(Cl)Cl)nc2ccccc12 [Compound 2, Isopropyl-(2-trichloromethylquinazolino-4-yl)-amine]	4.2^a	1.3	–	–
ClC(Cl)(Cl)c1nc(NC2CC2)c2ccccc2n1 [Compound 3, Cyclopropyl-(2-trichloromethylquinazolino-4-yl)-amine]	3.3^a	1.2	–	–
ClC(Cl)(Cl)c1nc(NCCN2CCCCC2)c2ccccc2n1 [Compound 4, (2-Piperidino-1-ylethyl)-(2-trichloromethylquinazolino-4-yl)-amine]	3.5^a	1.2	–	–
CC(Nc1nc(C(Cl)(Cl)Cl)nc2ccccc12)c1ccccc1 (stereo not shown) [Compound 5, (1-Phenylethyl)-(2-trichloromethylquinazolino-4-yl)-amine]	4.7^a	0.9	–	–
ClC(Cl)(Cl)c1nc(NCCCCc2ccccc2)c2ccccc2n1 [Compound 6, (4-Phenylbutyl)-(2-trichloromethylquinazolino-4-yl)-amine]	4.7^a	1.4	–	–
CCCNc1nc(C(Cl)(Cl)Cl)nc2ccccc12 [Compound 7, Propyl-(2-trichloromethylquinazolino-4-yl)-amine]	4.4^a	1.5	–	–
CCSc1nc(NC(C)C)c2ccccc2n1 [Compound 8, (2-Ethylsulfanylquinazolino-4-yl)-isopropylamine]	3.0^a	1.2	–	–
CCSc1nc(NCc2cccc(F)c2)c2ccccc2n1 [Compound 9, (2-Ethylsulfanylquinazolino-4-yl)-(3-fluorobenzyl)-amine]	5.5^a	2.0	–	–
CCSc1nc(NCCc2cccc(F)c2)c2ccccc2n1 [Compound 10, (2-Ethylsulfanylquinazolino-4-yl)-[2-(3-fluorophenyl)-ethyl]-amine]	5.3^a	1.5	–	–
CCSc1nc(NCCN2CCOCC2)c2ccccc2n1 [Compound 11, (2-Ethylsulfanylquinazolino-4-yl)-(2-morpholino-4-ylethyl)-amine]	3.2^a	1.0	–	–
CCSc1nc(NCCc2cccc(C(F)(F)F)c2)c2ccccc2n1 [Compound 12, (2-Ethylsulfanylquinazolino-4-yl)-[2-(3-trifluoromethyl-phenyl)ethyl]-amine]	4.0^a	0.8	–	–
O=[N+]([O-])c1ccc2ncnc(Nc3ccccc3)c2c1 [Compound 13, (6-Nitro-quinazolino-4-yl)-phenylamine]	4.2^a	0.7	–	–
CCOc1cc2ncnc(NCc3cccc4ccccc34)c2cc1OCC [Compound 14, (6,7-Diethoxyquinazolino-4-yl)-naphthaleno-1-ylmethylamine]	3.6^a	1.2	–	–
CCOc1cc2ncnc(NCCCN3CCOCC3)c2cc1OCC [Compound 15, (6,7-Diethoxyquinazolino-4-yl)-(3-morpholino-4-ylpropyl)-amine]	2.3^a	0.8	–	–
C=CCNc1ncnc2cc(OCC)c(OCC)cc12 [Compound 16, Allyl-(6,7-diethoxyquinazolino-4-yl)-amine]	3.1^a	1.3	–	–
CCOc1cc2ncnc(NCCc3ccccn3)c2cc1OCC [Compound 17, (6,7-Diethoxyquinazolino-4-yl)-(2-pyridino-2-ylethyl)-amine]	2.2^a	1.2	–	–

SMILES	AMPK activity (degree of phosphorylation of serine-79) [1]	Glucose absorption [2]	AMPK activity (class: degree of phosphorylation of threonine-172) [1]	AMPK activity (degree of phosphorylation of serine-79 and threonine-172) [1]
CCOc1cc2ncnc(NCc3ccc(Cl)cc3)c2cc1OCC [Compound 18, (4-Chlorobenzyl)-(6,7-diethoxyquinazolino-4-yl)-amine]	6.0^a	1.0	–	–
CCSc1nc(NC(C)CC)c2ccccc2n1 (stereo not shown) [Compound 20, sec-Butyl-(2-ethylsulfanylquinazolino-4-yl)-amine]	–	1.9	weak (“weak” means that the degree of phosphorylation of threonine-172 increased by less than 1 time)	–
CCSc1nc(NCc2ccccc2)c2ccccc2n1 [Compound 22, Benzyl-(2-Ethylsulfanylquinazolino-4-yl)-amine]	–	2.6	strong (“strong” means that the degree of phosphorylation of threonine-172 increased by 3 times or more)	–
CCSc1nc(NCc2cccc(OC)c2)c2ccccc2n1 [Compound 24, (2-Ethylsulfanylquinazolino-4-yl)-(3-methoxybenzyl)-amine]	–	2.8	strong (“strong” means that the degree of phosphorylation of threonine-172 increased by 3 times or more)	–
CCSc1nc(NCc2ccc(OC)cc2)c2ccccc2n1 [Compound 25, (2-Ethylsulfanylquinazolino-4-yl)-(4-methoxybenzyl)-amine]	–	2.6	strong (“strong” means that the degree of phosphorylation of threonine-172 increased by 3 times or more)	–
CCSc1nc(NCc2cccc(C(F)(F)F)c2)c2ccccc2n1 [Compound 26, (2-Ethylsulfanylquinazolino-4-yl)-(3-trifluoromethylbenzyl)-amine]	–	1.7	mild (“mild” means that the degree of phosphorylation of threonine-172 increased by 1 to 3 times)	–
CCSc1nc(NCCc2ccccc2)c2ccccc2n1 [Compound 29, (2-Ethylsulfanylquinazolino-4-yl)-phenethylamine]	–	1.6	mild (“mild” means that the degree of phosphorylation of threonine-172 increased by 1 to 3 times)	–
CCSc1nc(NCCCCc2ccccc2)c2ccccc2n1 [Compound 30, (2-Ethylsulfanylquinazolino-4-yl)-(4-phenylbutyl)-amine]	–	1.8	mild (“mild” means that the degree of phosphorylation of threonine-172 increased by 1 to 3 times)	–
CCSc1nc(NCc2cccc3ccccc23)c2ccccc2n1 [Compound 35, (2-Ethylsulfanylquinazolino-4-yl)-naphthaleno-1-ylmethyl amine]	–	1.9	strong (“strong” means that the degree of phosphorylation of threonine-172 increased by 3 times or more)	–
CCSc1nc(NCc2ccc3c(c2)OCO3)c2ccccc2n1 [Compound 37, Benzo[1,3]dioxol-5-ylmethyl-(2-ethylsulfanylquinazolino-4-yl)-amine]	–	2.2	strong (“strong” means that the degree of phosphorylation of threonine-172 increased by 3 times or more)	–
CCCc1nc(NCc2cc(OC)c(OC)c(OC)c2)c2ccccc2n1 [Compound 400, (2-Propylquinazolino-4-yl)-(3,4,5-trimethoxybenzyl)-amine]	–	–	–	0.4
CCCc1nc(NCc2ccc(OC)cc2OC)c2ccccc2n1 [Compound 401, (2,4-Dimethoxybenzyl)-(2-propylquinazolino-4-yl)-amine]	–	–	–	1.4
CCCc1nc(NCc2cc(OC)ccc2OC)c2ccccc2n1 [Compound 402, (2,5-Dimethoxybenzyl)-(2-propylquinazolino-4-yl)-amine]	–	–	–	0.5
CCCc1nc(NCc2c(OC)cc(OC)cc2OC)c2ccccc2n1 [Compound 403, (2-Propylquinazolino-4-yl)-(2,4,6-trimethoxybenzyl)-amine]	–	–	–	1.3
COc1ccc(CNc2ncnc3ccccc23)cc1OC [Compound 410, (3,4-Dimethoxybenzyl)-quinazolino-4-ylamine]	–	–	–	1.1
CC(C)c1nc(OCc2ccccc2)c2ccccc2n1 [Compound 415, 4-Benzyloxy-2-isopropylquinazoline]	–	–	–	1.1
CC(C)c1nc(SCc2ccccc2)c2ccccc2n1 [Compound 416, 4-Benzylsulfanyl-2-isopropylquinazoline]	–	–	–	0.7
